Assay results as given in ChEMBL document CHEMBL5465560, “Selectivity Literature for EUbOPEN Chemogenomic Library” (2024).
Numbering of substitutions follows the chain as printed. One block for each molecule: values may come before it.

Legend:
[1] = molecular target: Tyrosine-protein kinase ABL1 (Homo sapiens, UniProt P00519); experiment: Selectivity interaction (Kinase panel (Invitrogen)) EUB0000639a ABL1; conditions: at 200 nM
[2] = molecular target: Mitogen-activated protein kinase 10 (Homo sapiens, UniProt P53779); experiment: Selectivity interaction (Millipore kinase profiler) EUB0000124b MAPK10; conditions: at 10 µM
Mitogen-activated protein kinase 10, sequence (P53779 whole entry): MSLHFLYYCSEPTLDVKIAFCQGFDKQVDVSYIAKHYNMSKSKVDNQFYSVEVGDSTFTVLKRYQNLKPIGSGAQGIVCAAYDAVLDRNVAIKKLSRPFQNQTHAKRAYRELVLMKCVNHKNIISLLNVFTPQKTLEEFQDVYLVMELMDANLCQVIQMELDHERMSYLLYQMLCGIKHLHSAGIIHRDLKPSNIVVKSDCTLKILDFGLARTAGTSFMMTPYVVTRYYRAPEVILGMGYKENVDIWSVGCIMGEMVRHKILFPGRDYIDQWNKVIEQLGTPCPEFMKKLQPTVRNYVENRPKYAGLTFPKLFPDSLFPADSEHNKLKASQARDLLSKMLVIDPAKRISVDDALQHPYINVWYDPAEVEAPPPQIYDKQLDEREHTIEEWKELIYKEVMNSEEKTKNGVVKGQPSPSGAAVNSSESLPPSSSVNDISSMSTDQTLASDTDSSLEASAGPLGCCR

[3] = molecular target: T1, Serine/threonine-protein kinase TAO3 (Homo sapiens) (UniProt Q9H2K8); experiment: Selectivity interaction (KinomeScan (DiscoverX)) EUB0000229b TAOK3; conditions: at 10 µM
T1 sequence (whole entry): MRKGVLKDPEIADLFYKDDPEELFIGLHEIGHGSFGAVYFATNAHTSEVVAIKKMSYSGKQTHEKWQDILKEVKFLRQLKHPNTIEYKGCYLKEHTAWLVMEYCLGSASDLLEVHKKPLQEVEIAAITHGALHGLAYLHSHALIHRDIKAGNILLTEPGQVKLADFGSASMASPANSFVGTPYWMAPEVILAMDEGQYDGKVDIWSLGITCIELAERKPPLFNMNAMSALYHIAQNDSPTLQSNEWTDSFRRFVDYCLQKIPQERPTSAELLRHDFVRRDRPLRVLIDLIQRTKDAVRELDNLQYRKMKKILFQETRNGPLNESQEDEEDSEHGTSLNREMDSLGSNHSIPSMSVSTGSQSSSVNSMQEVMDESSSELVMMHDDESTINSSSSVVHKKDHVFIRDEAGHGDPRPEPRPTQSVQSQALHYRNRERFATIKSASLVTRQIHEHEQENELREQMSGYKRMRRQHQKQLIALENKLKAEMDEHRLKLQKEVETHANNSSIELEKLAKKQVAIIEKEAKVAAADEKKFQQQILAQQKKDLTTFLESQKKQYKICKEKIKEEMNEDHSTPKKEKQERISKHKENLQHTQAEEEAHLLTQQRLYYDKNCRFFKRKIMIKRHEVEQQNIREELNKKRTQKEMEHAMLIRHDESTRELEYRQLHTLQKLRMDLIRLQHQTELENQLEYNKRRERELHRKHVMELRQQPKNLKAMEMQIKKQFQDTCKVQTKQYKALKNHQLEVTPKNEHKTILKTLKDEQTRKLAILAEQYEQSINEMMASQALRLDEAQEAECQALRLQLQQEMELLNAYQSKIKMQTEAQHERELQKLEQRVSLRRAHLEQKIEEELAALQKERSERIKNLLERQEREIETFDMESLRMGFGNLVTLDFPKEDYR

[4] = tested on: T2, Receptor-type tyrosine-protein kinase FLT3 (Homo sapiens), P36888 [D835Y]; experiment: (§1) Selectivity interaction (KinomeScan (DiscoverX)) EUB0000618a FLT3; conditions: at 10 µM
T2 sequence (whole entry): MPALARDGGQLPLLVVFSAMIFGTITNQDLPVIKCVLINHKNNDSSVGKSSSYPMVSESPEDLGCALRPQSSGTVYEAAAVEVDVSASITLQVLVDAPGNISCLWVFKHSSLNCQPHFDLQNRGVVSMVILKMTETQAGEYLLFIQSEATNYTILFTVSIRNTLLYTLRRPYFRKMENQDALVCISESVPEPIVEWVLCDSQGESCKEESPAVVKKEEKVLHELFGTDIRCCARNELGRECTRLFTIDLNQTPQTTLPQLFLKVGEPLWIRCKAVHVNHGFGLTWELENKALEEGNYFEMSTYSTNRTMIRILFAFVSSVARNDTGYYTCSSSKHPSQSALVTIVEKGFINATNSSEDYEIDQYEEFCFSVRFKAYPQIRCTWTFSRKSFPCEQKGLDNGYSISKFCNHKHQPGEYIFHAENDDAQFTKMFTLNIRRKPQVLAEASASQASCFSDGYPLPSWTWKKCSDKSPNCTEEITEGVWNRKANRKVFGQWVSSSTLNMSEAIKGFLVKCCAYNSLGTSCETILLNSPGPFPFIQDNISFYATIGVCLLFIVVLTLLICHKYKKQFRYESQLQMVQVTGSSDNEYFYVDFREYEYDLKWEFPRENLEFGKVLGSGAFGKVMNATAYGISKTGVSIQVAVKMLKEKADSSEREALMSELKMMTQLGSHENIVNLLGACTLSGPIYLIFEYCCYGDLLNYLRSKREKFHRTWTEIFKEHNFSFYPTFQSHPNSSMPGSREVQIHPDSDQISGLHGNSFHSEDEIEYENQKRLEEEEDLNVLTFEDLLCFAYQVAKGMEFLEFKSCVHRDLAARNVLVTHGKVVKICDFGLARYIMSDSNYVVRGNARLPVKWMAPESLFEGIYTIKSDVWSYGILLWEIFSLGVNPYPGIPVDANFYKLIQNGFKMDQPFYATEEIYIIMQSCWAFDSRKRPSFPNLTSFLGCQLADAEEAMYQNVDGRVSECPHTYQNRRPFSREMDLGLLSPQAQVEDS

[5] = tested on: T3, Receptor-type tyrosine-protein kinase FLT3 (Homo sapiens), P36888 [R834Q]; experiment: as §1; conditions: at 10 µM
T3 sequence (whole entry): T2 sequence (whole entry) with R834Q, Y835D

[6] = tested on: Receptor-type tyrosine-protein kinase FLT3 (Homo sapiens), P36888 [UNDEFINED MUTATION]; experiment: as §1; conditions: at 10 µM

Tyrosine-protein kinase ABL1, sequence (P00519 whole entry): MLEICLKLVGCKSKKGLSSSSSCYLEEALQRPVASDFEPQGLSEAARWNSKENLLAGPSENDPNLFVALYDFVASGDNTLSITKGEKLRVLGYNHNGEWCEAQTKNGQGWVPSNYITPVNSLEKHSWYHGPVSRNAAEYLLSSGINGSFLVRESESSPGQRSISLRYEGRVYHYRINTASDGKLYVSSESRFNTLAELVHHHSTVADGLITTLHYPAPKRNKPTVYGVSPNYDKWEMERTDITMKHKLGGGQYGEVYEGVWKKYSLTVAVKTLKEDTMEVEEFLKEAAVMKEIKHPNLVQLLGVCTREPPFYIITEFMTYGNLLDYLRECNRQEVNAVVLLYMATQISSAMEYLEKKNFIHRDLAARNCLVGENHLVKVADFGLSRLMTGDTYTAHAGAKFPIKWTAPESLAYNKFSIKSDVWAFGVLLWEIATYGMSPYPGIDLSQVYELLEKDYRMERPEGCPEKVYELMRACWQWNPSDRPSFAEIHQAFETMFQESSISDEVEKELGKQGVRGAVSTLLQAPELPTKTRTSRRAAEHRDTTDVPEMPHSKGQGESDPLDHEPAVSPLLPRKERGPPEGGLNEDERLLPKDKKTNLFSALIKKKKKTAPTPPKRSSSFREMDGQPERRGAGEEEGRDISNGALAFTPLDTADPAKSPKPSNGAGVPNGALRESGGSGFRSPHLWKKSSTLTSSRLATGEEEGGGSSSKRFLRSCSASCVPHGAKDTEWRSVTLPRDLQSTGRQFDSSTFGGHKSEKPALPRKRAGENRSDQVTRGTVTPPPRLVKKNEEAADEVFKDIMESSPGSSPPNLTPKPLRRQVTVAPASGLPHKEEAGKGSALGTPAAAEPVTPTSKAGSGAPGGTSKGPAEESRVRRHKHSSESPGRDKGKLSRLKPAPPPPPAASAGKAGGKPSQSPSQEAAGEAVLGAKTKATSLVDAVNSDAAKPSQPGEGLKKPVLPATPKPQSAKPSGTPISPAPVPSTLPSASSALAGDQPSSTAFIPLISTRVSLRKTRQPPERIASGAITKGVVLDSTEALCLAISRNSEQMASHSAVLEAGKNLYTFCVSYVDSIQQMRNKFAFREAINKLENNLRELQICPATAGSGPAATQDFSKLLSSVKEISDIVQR

% of inhibition [1]: -8%
Structure (SMILES): CC[C@@H]1[C@H](F)C(=O)N[C@@H]1COc1nccc2cc(C(N)=O)c(OC)cc12 [ZIMLOVISERTIB]

% of control [2]: 76%
Structure (SMILES): CC(=O)Nc1cccc(-n2c(=O)n(C3CC3)c(=O)c3c(Nc4ccc(I)cc4F)n(C)c(=O)c(C)c32)c1

Structure (SMILES): COc1cc(N(C)c2ccnc3ccc(C(F)(F)F)cc23)cc(OC)c1OC
% binding [3]: 80%

Structure (SMILES): O[C@H]1CC[C@H](Nc2ncc3nc(Nc4c(F)cc(F)cc4F)n([C@H]4CCOC4)c3n2)CC1
% of control [4]: 100% | % of control [5]: 91% | % of control [6]: 90%
